Assay results reported in PMC9450014, “The evaluation of ADME and pharmacokinetic properties of decoquinate derivatives for the treatment of malaria” (Frontiers in Pharmacology, 2022).

Experiments:
[1] = In vivo pharmacokinetics, intravenous administration; design: species or system C57BL/6 mice; settings: C57BL/6, mouse, iv, mice, whole blood, dosed compound measured
Method: Healthy C57BL/6 mice each weighing approximately 25 g were maintained at the University of Cape Town animal facility. Mice were housed in 27 × 21 × 28 cm cages (n = 3) under controlled environmental conditions at 22 ± 2°C, humidity of 55 ± 15% and a 12-hour light/dark cycle. Food and water were available ad libitum. Mice were acclimatised to the experimental environment for 4–5 days prior to initiating the experiments. […] The total volume of administration was 80 μL. Blood samples were collected post-dose in lithium heparin microvials via tail bleeding at predetermined intervals at 0.16, 0.5, 1, 3, 5, 8, 10, and 24 h. Samples were gently vortexed and stored at −80°C until analysis. A quantitative LC-MS/MS assay was used to determine whole-blood concentrations of RMB005, −059 and −060. Whole blood samples (20 μL) were treated with 100 μL ice cold acetonitrile containing the compound RMB073 used previously for determination of whole blood concentrations in analysis of TB-active compounds, as internal standard (200 ng/ml) ([Tanner et al., 2019]). The mixture was vortexed vigorously for 1 min, and 5 µL of the supernatant were injected onto the analytical column following centrifugation (5,590 g for 5 min). Gradient elution was carried out using a Gemini NX-C18 analytical column (5 μm, 2.1 mm × 50 mm). The aqueous mobile phase consisted of 5 mm ammonium acetate with 0.1% acetic acid in deionised water, while the organic phase consisted of 0.1% acetic acid in acetonitrile. A Shimadzu HPLC and reverse phase Gemini NX-C18 column coupled to an AB Sciex 3200 Q TRAP MS was operated at unit resolution in the multiple reaction monitoring (MRM) mode. […] The calibration standards ranged from 2 ng/mL to 3,000 ng/mL for RMB005, and 2 ng/mL to 4,000 ng/mL for RMB059, −060 and DQ. Drug concentration versus time plots for each compound were used to determine maximal drug concentration C max, time T max to reach C max, elimination half-life t 1/2 and the area under the concentration-time curve from time zero to infinity, AUC0-inf. From these values the following PK parameters—clearance CL, volume of distribution (Vd) and oral bioavailability (BA) were determined using the non-compartmental analysis Microsoft Excel Add-In PKSolver ([Zhang et al., 2010]).

[2] = Metabolic stability in mouse liver microsomes; type: in vitro ADME
Method: A 5-point metabolic stability assay in human and mouse liver microsomes were performed in duplicate in 96-well plates. Stock solution of RMB005, −059 and 060 prepared in DMSO were individually incubated at 37°C in mouse and pooled human liver microsomes (0.4 mg/mL). An aliquot was removed at 0 min and quenched with ice cold acetonitrile containing the internal standard carbamazepine (0.1 μM). The cofactor NADPH was added, and the reactions were subsequently stopped at time points 5, 10, 30, and 60 min by removal of an aliquot and quenching with ice cold acetonitrile containing the internal standard. The supernatant of all samples were analysed via LC-MS/MS analysis (reverse phase Gemini NX-C18 column and Shimadzu HPLC and AB Sciex 3200 Q TRAP MS). Calculation of in vitro t1/2, intrinsic clearance rate (CLint) and predicted in vivo clearance (CLH) was carried out using the following equations ([Obach 1999]). CLintClint= 0.693/t1/2(min) ×Volume of incubation (μL)/microsomal protein (μg) Where t1/2 is calculated in minutes.
Predicted in vivo CLH CLH=Q × fu(plasma)×CLint/fu(mic)/Q+ fu(plasma)× CLint/fu(mic) Where Q is the hepatic blood flow of mouse (90 mL/min/kg) or human (20.7 mL/min/kg). Fu(plasma) is the unbound drug fraction in the plasma and fu(mic) is the unbound fraction in the microsomes.
The equation below was used in the case of RMB059 and -060, where protein-binding data were not available. CLH=Q × CLint/Q+ CLint

Vd ([1]; 5 mg/kg per table footnote): 6.59 ± 1.83 L/kg | clearance ([1]; 5 mg/kg per table footnote): 28.5 ± 2.17 mL/min/kg | half-life ([1]; 5 mg/kg per table footnote (10 mg/kg per method)): 2.62 ± 0.61 h | half-life ([2]; mouse liver microsomes, NADPH, read-out: Degradation half-life MLM): 1.22 h | CLint scaled ([2]; mouse, liver microsomes, calculated from t1/2 in MLM, read-out: In vitro CLint MLM): 104 mL/min/kg | Estimated in vivo CLH MLM ([2]; protein binding data included): 81.2 mL/min/kg
SMILES: CCCCCCCCCCOc1cc2c(=O)c(C(=O)NCCOCCO)c[nH]c2cc1OCC [RMB005]
